The target of one data set is T1, CYP1A2 (human) (Homo sapiens, UniProt P05177).
T1 construct: purchased BD Gentest (Switzerland); host or cells: baculovirus expression system
T1 sequence (P05177 1-516): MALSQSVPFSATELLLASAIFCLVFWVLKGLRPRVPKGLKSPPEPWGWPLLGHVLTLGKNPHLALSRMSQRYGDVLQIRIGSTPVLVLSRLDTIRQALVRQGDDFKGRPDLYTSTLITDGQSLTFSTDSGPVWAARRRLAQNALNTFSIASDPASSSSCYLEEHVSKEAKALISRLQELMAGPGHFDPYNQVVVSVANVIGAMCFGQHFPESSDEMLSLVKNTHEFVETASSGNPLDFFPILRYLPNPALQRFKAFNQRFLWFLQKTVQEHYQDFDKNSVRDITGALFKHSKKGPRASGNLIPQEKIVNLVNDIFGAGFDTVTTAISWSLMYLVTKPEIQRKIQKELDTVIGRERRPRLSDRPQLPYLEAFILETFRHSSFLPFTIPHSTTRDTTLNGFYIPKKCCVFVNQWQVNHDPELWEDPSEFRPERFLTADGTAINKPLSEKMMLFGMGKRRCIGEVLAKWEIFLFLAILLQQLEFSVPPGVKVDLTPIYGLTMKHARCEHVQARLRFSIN
In words: Metabolism by isolated human CYP1A2. The note with it: petasins 20 μM, 60 min. In kind it is in vitro ADME. The source says: (§1) The metabolism of petasin, isopetasin, and neopetasin was investigated using three different S9 fractions originating from three different species (isolated from rat, dog, and human liver homogenates containing cytochrome P450 isoforms) and isolated cytochromes of two different species (human and rat; rat analogues of the respective human cytochromes were used). For the expression of the different cytochromes, a baculovirus expression system was used according to supplier's manual. The S9 fractions or respectively single P450 cytochromes were used to mimic the liver metabolism by in vitro incubation.
(§2) The assay was carried out in triplicate in 1.5 ml glass vials with a final concentration of 20 μM of petasin, isopetasin, and neopetasin. The incubation was performed in a 37°C warm water bath. S9 fractions were thawed slowly on ice. Four different approaches were pursued by testing: (a) petasin, neopetasin, and isopetasin before (0 min) and after 60 min incubations with S9 fraction; (b) petasin, neopetasin, and isopetasin without S9 fraction after 60 min incubation; (c) vehicle as negative controls; and (d) cofactors of S9 fraction after 60‐min incubation.
(§3) A mixture of NADPH regeneration systems A (20‐fold) and B (100‐fold), phosphate buffer, and H2O was added, preincubated at 37°C, and shaken gently for 5 min. Afterwards, the recommended amount between 10 and 40 pmol/ml of enzyme or enzyme mixture was added according to manufacturer's instruction and incubated for further 60 min at 37°C and gently shaken. Afterwards, the reactions were stopped by addition of acetonitrile (400 μl). For the control sample, acetonitrile was added at 0 min incubation. The samples were centrifuged for 3 min at 10,000 × g. The supernatant was transferred to high‐performance liquid chromatography vials and analyzed by ultra‐performance liquid chromatography mass spectrometry (UPLC/MS). The UPLC analysis was performed with an UPLC Acquity H Class from Waters (Waters Corporation, Switzerland) including a quaternary high‐pressure gradient pump, an automatic sample injector, and a column thermostat. […]

In another data set the target is T2, CYP2D2 (rats) (Rattus norvegicus, UniProt P10634).
T2 construct: purchased BD Gentest (Switzerland); host or cells: baculovirus expression system
T2 sequence (P10634 1-500): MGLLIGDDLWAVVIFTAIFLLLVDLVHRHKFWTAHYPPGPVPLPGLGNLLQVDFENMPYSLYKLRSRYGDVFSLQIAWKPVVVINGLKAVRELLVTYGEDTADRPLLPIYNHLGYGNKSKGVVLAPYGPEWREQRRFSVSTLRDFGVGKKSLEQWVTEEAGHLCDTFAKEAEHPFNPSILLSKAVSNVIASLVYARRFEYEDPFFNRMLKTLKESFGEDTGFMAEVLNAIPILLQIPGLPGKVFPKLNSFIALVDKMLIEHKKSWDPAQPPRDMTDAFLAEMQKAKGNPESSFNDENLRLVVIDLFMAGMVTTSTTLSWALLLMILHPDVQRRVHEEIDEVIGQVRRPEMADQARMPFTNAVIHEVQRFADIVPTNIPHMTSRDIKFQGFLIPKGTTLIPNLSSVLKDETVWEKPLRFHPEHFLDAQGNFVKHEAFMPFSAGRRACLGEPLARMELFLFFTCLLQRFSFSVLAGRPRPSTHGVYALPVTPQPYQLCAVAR
In words: Metabolism by isolated rat CYP2D2. Format: in vitro ADME. As to conditions: petasins 20 μM, 60 min.
Source text: as §1, §2, §3

The test system of a further data set is HepG2 cells. In words: WST-1 metabolic activity (cytotoxicity) in HepG2 cells. Format: cell-based, human. The note with it: HepG2, 250 μM (highest concentration), 4 hr. The procedure:
HepG2 and H‐4‐II‐E cells were differentiated for 24 hr. HepaRG cells were directly seeded in precoated 96‐well microtiter plates and were incubated in William's medium with general purpose supplements according to manufacturer's manual until adherence. All cells were treated with Ze 339 (up to 100 μg/ml) or petasin, isopetasin, neopetasin, petasol, isopetasol, petasin mixture, fatty acid mixture, and reconstituted extracts (up to 250 μM) for 4 hr.
In the three cell lines, cytotoxicity was defined as a decrease in metabolic activity of ≥20% in the WST‐1 assay. At the end of the experiment, 10 μl WST‐1 reagent was added to each well. Plates were then incubated for 2 hr to allow for the reduction of WST‐1 reagent. Absorbance was measured using a microplate absorbance reader (Infinite M 200, Tecan Trading Ltd., Switzerland) at 450 nm, reference wavelength of 620 nm. Due to some matrix effect, the lowest concentration (0.02 μg/ml for Ze 339 and 3.9 μM for single constituents and mixtures) of each substance tested was defined as 100% metabolic activity. Results were expressed as percentage of the control metabolic activity, and data were presented as mean values ± SEM (n = 3–6).
Concentration‐response analysis was done using the sigmoidal Hill equation: E(t) = E0 − Emax × C(t)^N/(IC50 ^N + C(t)^N), where E is the effect at time t, E0 the effect at baseline (time = 0), IC50 the concentration yielding 50% of the maximal effect (Emax), and N denotes the sigmoidicity coefficient (Origin 2017 Software). For statistical analysis, analysis of variance with Dunnett's multicomparison test was used to correct for multiplicity of testing (IBM SPSS Statistics software, version 25, IBM Corp., USA). The level of significance was ^* p < .05, ^** p < .01 and ^*** p < .001; NS = no significance.
Background: Tetrazolium assays rely on reduction of a dye to a coloured formazan, in cell work by metabolically active cells.

Consider `C/C=C(/C)C(=O)O[C@@H]1CCC2=CC(=O)C(=C(C)C)C[C@]2(C)[C@H]1C` [isopetasin], for which, at CYP1A2 (human), the “extent of metabolism by CYP1A2 (human)” value came to 21%. In addition, the “extent of metabolism by CYP2D2 (rat)” value on CYP2D2 (rats) was determined as 7%. The “metabolic activity compared with the reference concentration (3.9 μM)” value in the data set with HepG2 cells is given as 65.6%.

For `C=C(C)[C@H]1C[C@@]2(C)C(=CC1=O)CC[C@@H](OC(=O)/C(C)=C\C)[C@@H]2C` [neopetasin], the “extent of metabolism by CYP1A2 (human)” value on CYP1A2 (human) is reported as < 1%. At CYP2D2 (rats), the “extent of metabolism by CYP2D2 (rat)” value is on record as 36%. In the data set on HepG2 cells, the “metabolic activity compared with the reference concentration (3.9 μM)” value came out at 66.8%.

On to `C=C(C)[C@@H]1C[C@@]2(C)C(=CC1=O)CC[C@@H](OC(=O)/C(C)=C\C)[C@@H]2C` [petasin], for which, on CYP1A2 (human), the “extent of metabolism by CYP1A2 (human)” value came to 4%. Further, the “extent of metabolism by CYP2D2 (rat)” value on CYP2D2 (rats) is on record as 37%. For the same molecule, in the data set on HepG2 cells, the “metabolic activity compared with the reference concentration (3.9 μM)” value came to 60.9%.

These data come from paper PMC7004140, “In vitro hepatotoxicity of Petasites hybridus extract (Ze 339) depends on the concentration, the cytochrome activity of the cell system, and the species used” (Phytotherapy Research, 2019).
